Data as given in ChEMBL document CHEMBL5212743, “Selectivity Literature for EUbOPEN Chemogenomics Library wave 3” (2023).
One block for each compound: values may come before it.

Legend:
[1] = biological target: T1, Serine/threonine-protein kinase LATS2 (Homo sapiens) (UniProt Q9NRM7); experiment: Selectivity interaction (KinomeScan (DiscoverX)) EUB0000740a LATS2; conditions: at 1 µM
T1 sequence (whole entry): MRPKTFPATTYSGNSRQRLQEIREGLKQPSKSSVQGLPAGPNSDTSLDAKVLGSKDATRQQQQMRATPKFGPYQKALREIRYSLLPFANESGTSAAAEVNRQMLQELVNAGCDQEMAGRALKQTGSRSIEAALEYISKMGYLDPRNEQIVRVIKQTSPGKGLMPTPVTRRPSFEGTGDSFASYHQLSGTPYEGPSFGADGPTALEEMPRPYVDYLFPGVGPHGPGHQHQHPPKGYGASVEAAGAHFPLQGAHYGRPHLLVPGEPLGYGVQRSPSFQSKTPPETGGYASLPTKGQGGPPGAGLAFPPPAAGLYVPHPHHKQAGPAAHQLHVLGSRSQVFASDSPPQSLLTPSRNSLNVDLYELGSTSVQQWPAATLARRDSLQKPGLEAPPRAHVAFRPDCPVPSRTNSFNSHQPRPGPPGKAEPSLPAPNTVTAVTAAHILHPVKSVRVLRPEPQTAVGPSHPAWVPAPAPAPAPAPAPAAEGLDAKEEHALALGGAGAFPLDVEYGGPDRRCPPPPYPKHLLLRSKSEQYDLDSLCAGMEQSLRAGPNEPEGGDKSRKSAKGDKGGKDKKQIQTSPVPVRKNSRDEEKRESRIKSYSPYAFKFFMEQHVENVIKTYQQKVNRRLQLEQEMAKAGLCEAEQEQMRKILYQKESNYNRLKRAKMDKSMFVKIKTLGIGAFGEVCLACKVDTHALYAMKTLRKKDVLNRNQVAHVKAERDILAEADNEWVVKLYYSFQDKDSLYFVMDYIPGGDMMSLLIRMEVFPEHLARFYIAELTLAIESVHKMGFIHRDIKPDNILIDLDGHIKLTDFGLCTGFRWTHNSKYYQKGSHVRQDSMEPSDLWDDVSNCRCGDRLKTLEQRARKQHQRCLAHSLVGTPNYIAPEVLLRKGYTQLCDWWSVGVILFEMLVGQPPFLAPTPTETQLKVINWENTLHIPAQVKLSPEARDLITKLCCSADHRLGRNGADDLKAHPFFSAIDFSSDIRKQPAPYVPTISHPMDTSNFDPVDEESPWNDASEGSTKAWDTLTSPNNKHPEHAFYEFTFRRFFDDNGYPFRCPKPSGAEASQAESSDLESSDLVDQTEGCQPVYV

[2] = biological target: Ephrin type-A receptor 5 (Homo sapiens) (UniProt P54756); experiment: Selectivity interaction (KinomeScan (DiscoverX)) EUB0000740a EPHA5; conditions: at 1 µM
Aurora kinase B = Aurora kinase B (Homo sapiens, UniProt Q96GD4); experiment: Selectivity interaction (KinomeScan (DiscoverX)) EUB0000740a AURKB; conditions: at 1 µM
[3] = biological target: Atypical kinase COQ8B, mitochondrial (Homo sapiens) (UniProt Q96D53); experiment: Selectivity interaction (KinomeScan (DiscoverX)) EUB0000740a ADCK4; conditions: at 1 µM
D(1B) dopamine receptor [4] = biological target: T2, D(1B) dopamine receptor (Homo sapiens, UniProt P21918); experiment: Selectivity interaction (GPCR panel (PDSP screen)) EUB0000586a DRD5; conditions: at 10 µM
T2 sequence (P21918 whole entry): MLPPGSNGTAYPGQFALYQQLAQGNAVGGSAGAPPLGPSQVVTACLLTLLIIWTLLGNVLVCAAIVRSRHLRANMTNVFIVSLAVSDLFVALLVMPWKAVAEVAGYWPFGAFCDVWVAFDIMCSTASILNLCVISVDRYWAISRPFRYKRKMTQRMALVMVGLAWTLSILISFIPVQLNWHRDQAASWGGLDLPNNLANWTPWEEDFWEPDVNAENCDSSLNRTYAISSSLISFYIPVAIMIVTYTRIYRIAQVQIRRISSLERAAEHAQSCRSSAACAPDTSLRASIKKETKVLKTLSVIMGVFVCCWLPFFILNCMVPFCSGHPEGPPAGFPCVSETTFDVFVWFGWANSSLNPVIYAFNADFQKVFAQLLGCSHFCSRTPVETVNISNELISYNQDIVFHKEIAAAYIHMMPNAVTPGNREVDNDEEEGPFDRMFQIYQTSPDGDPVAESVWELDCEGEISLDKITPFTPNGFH

[5] = biological target: Death-associated protein kinase 1 (Homo sapiens) (UniProt P53355); experiment: Selectivity interaction (KinomeScan (DiscoverX)) EUB0000586a DAPK1; conditions: at 1 µM
Death-associated protein kinase 1 (Homo sapiens), sequence (P53355 whole entry, looked up): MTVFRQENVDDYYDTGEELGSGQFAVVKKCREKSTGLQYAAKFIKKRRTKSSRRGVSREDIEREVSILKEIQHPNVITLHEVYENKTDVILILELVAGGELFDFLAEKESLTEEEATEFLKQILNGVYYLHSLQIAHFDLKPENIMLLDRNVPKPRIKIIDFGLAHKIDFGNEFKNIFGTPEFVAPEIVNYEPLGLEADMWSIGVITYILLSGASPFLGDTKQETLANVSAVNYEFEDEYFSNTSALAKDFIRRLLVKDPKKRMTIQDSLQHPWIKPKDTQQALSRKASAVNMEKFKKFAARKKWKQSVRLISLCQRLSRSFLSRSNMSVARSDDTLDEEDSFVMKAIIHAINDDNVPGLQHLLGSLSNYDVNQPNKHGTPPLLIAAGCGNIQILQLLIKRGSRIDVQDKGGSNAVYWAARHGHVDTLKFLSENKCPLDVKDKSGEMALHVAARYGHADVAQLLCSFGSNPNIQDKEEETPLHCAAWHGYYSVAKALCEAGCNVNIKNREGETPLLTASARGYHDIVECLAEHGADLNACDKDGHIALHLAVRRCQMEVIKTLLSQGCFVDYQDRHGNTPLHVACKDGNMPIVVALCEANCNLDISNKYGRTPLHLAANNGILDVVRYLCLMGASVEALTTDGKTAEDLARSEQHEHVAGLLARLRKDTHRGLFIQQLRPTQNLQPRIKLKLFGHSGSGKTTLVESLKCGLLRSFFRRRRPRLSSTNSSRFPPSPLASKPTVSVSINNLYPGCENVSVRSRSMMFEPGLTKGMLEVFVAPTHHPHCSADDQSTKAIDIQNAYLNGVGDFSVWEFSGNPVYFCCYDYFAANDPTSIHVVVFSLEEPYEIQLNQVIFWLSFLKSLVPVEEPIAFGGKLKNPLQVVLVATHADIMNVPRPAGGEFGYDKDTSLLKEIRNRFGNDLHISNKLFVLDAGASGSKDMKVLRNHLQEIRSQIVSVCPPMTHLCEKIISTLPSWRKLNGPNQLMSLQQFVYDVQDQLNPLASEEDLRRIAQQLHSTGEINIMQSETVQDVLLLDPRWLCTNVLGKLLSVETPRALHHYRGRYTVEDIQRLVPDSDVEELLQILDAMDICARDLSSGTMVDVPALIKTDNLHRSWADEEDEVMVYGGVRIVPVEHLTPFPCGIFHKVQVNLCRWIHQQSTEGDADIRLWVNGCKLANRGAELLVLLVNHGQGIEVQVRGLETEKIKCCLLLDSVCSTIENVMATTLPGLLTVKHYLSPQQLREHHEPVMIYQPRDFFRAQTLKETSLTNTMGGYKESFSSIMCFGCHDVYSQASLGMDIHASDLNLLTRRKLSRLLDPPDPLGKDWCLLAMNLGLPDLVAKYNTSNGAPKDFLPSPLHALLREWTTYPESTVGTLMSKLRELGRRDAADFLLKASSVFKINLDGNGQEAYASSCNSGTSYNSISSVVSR

[6] = biological target: Ribosomal protein S6 kinase alpha-1 (Homo sapiens) (UniProt Q15418); experiment: Selectivity interaction (KinomeScan (DiscoverX)) EUB0000586a RPS6KA1; conditions: at 1 µM
[7] = biological target: Serine/threonine-protein kinase tousled-like 1 (Homo sapiens) (UniProt Q9UKI8); experiment: Selectivity interaction (KinomeScan (DiscoverX)) EUB0000586a TLK1; conditions: at 1 µM
[8] = biological target: Ribosomal protein S6 kinase alpha-2 (Homo sapiens) (UniProt Q15349); experiment: Selectivity interaction (KinomeScan (DiscoverX)) EUB0000586a RPS6KA2; conditions: at 1 µM
Ribosomal protein S6 kinase alpha-2 (Homo sapiens), sequence (Q15349 whole entry, looked up): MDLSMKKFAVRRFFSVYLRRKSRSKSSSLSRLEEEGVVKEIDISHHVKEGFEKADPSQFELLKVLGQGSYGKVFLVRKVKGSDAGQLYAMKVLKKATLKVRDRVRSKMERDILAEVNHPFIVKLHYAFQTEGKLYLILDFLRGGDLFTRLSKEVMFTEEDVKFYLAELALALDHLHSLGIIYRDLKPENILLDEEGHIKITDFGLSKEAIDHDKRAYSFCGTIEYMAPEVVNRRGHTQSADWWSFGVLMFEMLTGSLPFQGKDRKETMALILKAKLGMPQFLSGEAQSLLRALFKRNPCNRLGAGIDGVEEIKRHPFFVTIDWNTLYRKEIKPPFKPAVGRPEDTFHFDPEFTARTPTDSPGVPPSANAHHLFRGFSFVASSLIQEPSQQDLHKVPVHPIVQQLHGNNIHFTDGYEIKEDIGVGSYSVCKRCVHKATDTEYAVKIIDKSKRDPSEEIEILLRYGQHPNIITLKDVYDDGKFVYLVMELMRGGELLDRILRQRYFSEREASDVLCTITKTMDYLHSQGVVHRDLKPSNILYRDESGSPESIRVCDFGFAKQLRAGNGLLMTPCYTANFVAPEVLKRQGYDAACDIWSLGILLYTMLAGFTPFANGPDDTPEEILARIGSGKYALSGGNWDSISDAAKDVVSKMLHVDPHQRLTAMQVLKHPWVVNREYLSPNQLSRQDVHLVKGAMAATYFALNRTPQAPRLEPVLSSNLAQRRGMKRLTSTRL

[9] = biological target: T3, Serine/threonine-protein kinase 38-like (Homo sapiens, UniProt Q9Y2H1); experiment: Selectivity interaction (KinomeScan (DiscoverX)) EUB0000586a STK38L; conditions: at 1 µM
T3 sequence (Q9Y2H1 2-464 limits assumed): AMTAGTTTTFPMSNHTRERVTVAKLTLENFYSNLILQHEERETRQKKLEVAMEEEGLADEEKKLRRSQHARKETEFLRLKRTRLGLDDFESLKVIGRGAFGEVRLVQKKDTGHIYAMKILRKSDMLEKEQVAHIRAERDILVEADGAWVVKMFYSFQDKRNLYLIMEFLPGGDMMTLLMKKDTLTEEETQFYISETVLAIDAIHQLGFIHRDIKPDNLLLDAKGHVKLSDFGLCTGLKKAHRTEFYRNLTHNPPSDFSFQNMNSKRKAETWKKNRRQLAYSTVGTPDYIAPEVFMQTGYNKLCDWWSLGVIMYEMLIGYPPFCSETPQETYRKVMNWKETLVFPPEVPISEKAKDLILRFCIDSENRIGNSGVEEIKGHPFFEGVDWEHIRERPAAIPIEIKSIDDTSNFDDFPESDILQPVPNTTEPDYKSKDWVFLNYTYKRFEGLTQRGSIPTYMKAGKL

[10] = biological target: Ribosomal protein S6 kinase alpha-6 (Homo sapiens) (UniProt Q9UK32); experiment: Selectivity interaction (KinomeScan (DiscoverX)) EUB0000586a RPS6KA6; conditions: at 1 µM
[11] = biological target: Kappa-type opioid receptor (Homo sapiens, UniProt P41145); experiment: Selectivity interaction (GPCR panel (PDSP screen)) EUB0000586a OPRK1; conditions: at 10 µM
[12] = biological target: 5-hydroxytryptamine receptor 3A (Homo sapiens) (UniProt P46098); experiment: Selectivity interaction (GPCR panel (PDSP screen)) EUB0000586a HTR3A; conditions: at 10 µM
[13] = biological target: Serine/threonine-protein kinase 24 (Homo sapiens) (UniProt Q9Y6E0); experiment: Selectivity interaction (KinomeScan (DiscoverX)) EUB0000586a STK24; conditions: at 1 µM
Serine/threonine-protein kinase 24 (Homo sapiens), sequence (Q9Y6E0 whole entry, looked up): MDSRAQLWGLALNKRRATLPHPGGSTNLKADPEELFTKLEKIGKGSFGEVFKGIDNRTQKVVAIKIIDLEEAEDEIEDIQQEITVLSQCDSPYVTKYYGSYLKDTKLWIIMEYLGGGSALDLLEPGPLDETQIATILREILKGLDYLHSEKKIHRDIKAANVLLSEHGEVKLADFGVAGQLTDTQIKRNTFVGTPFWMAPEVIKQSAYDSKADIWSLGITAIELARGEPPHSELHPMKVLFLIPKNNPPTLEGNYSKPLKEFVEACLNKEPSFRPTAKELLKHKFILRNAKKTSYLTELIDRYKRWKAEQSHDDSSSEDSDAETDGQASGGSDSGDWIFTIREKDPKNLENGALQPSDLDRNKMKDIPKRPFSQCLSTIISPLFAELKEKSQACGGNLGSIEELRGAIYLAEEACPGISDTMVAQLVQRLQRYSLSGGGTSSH

[14] = biological target: Sodium-dependent dopamine transporter (Homo sapiens, UniProt Q01959); experiment: Selectivity interaction (Eurofins-Panlabs screen (receptors)) EUB0000352a SLC6A3; conditions: at 10 µM
[15] = biological target: T3, Serine/threonine-protein kinase 38-like; experiment: Selectivity interaction (KinomeScan (DiscoverX)) EUB0000352a STK38L; conditions: at 1 µM
[16] = biological target: Leucine-rich repeat serine/threonine-protein kinase 2 (Homo sapiens, UniProt Q5S007); experiment: Selectivity interaction (KinomeScan (DiscoverX)) EUB0000352a LRRK2; conditions: at 1 µM
[17] = biological target: Serine/threonine-protein kinase Nek4 (Homo sapiens) (UniProt P51957); experiment: Selectivity interaction (KinomeScan (DiscoverX)) EUB0000549a NEK4; conditions: at 1 µM
[18] = biological target: T4, Cytoplasmic tyrosine-protein kinase BMX (Homo sapiens) (UniProt P51813); experiment: Selectivity interaction (KinomeScan (DiscoverX)) EUB0000549a BMX; conditions: at 1 µM
T4 sequence (whole entry): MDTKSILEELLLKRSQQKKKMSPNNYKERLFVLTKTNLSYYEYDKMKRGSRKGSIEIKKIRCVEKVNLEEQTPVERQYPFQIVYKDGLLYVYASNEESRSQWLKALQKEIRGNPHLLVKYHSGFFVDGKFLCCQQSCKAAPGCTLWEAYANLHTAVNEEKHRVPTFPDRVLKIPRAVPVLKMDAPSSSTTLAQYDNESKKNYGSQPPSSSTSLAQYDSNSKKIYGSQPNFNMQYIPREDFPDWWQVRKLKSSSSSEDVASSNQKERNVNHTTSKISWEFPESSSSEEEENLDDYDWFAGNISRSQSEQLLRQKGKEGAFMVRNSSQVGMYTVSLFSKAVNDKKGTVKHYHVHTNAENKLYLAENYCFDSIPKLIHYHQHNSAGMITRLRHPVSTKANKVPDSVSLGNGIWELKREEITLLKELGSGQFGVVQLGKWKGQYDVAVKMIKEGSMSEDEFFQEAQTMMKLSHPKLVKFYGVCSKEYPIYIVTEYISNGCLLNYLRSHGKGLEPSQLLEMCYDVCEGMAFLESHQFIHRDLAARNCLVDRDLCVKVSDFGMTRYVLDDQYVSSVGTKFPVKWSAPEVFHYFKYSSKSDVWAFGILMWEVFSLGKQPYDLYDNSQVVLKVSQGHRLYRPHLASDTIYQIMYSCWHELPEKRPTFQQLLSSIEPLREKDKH

[19] = biological target: T3, Serine/threonine-protein kinase 38-like; experiment: Selectivity interaction (KinomeScan (DiscoverX)) EUB0000549a STK38L; conditions: at 1 µM
[20] = biological target: Transient receptor potential cation channel subfamily M member 6 (Homo sapiens) (UniProt Q9BX84); experiment: Selectivity interaction (KinomeScan (DiscoverX)) EUB0000549a TRPM6; conditions: at 1 µM
[21] = biological target: 5-hydroxytryptamine receptor 1B (Homo sapiens) (UniProt P28222); experiment: Selectivity interaction (GPCR panel (PDSP screen)) EUB0000343a HTR1B; conditions: at 10 µM
5-hydroxytryptamine receptor 1B (Homo sapiens), sequence (P28222 whole entry): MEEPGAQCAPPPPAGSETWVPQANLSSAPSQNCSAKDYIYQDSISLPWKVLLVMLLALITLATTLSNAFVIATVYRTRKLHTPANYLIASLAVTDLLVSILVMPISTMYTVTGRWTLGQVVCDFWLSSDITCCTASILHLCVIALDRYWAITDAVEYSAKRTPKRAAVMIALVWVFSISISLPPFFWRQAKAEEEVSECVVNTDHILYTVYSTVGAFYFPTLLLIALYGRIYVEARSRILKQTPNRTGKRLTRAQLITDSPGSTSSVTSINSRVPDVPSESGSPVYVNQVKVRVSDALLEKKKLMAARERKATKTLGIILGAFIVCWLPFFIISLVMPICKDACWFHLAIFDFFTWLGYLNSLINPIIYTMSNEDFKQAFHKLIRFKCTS

[22] = biological target: T5, Phosphatidylinositol 5-phosphate 4-kinase type-2 gamma (Homo sapiens) (UniProt Q8TBX8); experiment: Selectivity interaction (KinomeScan (DiscoverX)) EUB0000343a PIP4K2C; conditions: at 1 µM
T5 sequence (whole entry): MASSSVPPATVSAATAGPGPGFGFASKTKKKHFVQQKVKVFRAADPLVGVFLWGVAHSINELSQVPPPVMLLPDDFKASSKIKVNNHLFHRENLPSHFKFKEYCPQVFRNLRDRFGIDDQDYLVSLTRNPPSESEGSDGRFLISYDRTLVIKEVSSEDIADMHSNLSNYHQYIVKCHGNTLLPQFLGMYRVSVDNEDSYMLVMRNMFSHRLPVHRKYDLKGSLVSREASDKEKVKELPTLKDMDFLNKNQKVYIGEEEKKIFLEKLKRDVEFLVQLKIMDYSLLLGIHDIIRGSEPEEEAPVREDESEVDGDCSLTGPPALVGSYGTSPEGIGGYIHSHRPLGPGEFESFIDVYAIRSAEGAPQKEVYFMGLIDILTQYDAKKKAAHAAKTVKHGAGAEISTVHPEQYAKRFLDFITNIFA

[23] = biological target: Serine/threonine-protein kinase Nek1 (Homo sapiens) (UniProt Q96PY6); experiment: Selectivity interaction (KinomeScan (DiscoverX)) EUB0000343a NEK1; conditions: at 1 µM
[24] = biological target: Tyrosine-protein kinase JAK1 (Homo sapiens, UniProt P23458); conditions: at 1 µM
[25] = biological target: T6, Tyrosine-protein kinase ABL1 (Homo sapiens, UniProt P00519); conditions: at 20 µM
T6 sequence (P00519 whole entry): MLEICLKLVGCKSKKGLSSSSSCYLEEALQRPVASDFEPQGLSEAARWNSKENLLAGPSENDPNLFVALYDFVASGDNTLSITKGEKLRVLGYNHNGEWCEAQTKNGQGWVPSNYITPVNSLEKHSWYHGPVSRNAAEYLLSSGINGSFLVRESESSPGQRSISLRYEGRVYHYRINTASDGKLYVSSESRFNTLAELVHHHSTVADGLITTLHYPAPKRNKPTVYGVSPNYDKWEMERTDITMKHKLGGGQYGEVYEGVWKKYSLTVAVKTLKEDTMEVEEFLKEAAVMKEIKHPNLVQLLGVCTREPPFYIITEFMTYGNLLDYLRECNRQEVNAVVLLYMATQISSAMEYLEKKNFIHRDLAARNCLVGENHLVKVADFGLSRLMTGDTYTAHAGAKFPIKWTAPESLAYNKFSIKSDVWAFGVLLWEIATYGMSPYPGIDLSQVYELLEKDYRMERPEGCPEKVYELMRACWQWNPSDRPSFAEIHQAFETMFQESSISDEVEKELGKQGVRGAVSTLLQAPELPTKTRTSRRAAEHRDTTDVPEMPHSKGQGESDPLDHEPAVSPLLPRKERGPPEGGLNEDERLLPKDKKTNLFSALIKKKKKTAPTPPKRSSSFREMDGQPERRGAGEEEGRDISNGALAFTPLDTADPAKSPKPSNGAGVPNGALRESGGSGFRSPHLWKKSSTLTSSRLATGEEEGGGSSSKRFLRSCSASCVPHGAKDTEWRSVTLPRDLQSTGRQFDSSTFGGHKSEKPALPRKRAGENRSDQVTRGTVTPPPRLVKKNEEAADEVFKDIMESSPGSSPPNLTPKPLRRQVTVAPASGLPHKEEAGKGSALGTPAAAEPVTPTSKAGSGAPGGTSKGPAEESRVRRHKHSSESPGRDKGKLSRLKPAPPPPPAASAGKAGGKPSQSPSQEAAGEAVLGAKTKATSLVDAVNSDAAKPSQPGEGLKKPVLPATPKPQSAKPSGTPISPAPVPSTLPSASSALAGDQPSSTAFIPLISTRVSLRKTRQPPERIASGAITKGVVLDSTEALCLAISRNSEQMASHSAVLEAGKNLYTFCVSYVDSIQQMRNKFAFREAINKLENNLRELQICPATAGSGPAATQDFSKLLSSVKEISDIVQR

[26] = biological target: T6, Tyrosine-protein kinase ABL1; conditions: at 20 µM; remark: listed apart in the source
[27] = biological target: Gamma-aminobutyric acid receptor subunit beta-2 (Homo sapiens) (UniProt P47870); experiment: Selectivity interaction (Eurofins-Panlabs panel (at Boehringer Ingelheim)) EUB0000314b GABRB2; conditions: at 10 µM
[28] = biological target: T1, Serine/threonine-protein kinase LATS2 (Homo sapiens); experiment: Selectivity interaction (KinomeScan (DiscoverX)) EUB0000314b LATS2; conditions: at 1 µM
[29] = biological target: Beta-1 adrenergic receptor (Homo sapiens) (UniProt P08588); experiment: Selectivity interaction (Eurofins-Panlabs panel (at Boehringer Ingelheim)) EUB0000314b ADRB1; conditions: at 10 µM
D(1B) dopamine receptor [30] = biological target: T2, D(1B) dopamine receptor; experiment: Selectivity interaction (GPCR panel (PDSP screen)) EUB0000314b DRD5; conditions: at 10 µM

% of control [1]: 46% | % of control [2]: 41% | % of control (Aurora kinase B): 41% | % of control [3]: 44%
Structure (SMILES): CN(C)C(=O)Cn1cc(-c2nc(C3(c4ccc(-c5cnc(N)nc5)cc4)CC3)no2)cn1

% of inhibition (D(1B) dopamine receptor [4]): 32% | % of control [6]: 0% | % of control [7]: 0% | % of control [8]: 0% | % of control [9]: 38% | % of control [10]: 0% | % of inhibition [11]: 28% | % of inhibition [12]: 21% | % of control [13]: 0%
Structure (SMILES): CCS(=O)(=O)c1cc2cc(C[C@@](O)(CC(C)(C)c3ccc(F)cc3C(N)=O)C(F)(F)F)[nH]c2cn1
% of control [5]: 0%

% of inhibition [14]: 71% | % of control [15]: 34% | % of control [16]: 43%
Structure (SMILES): CS(=O)(=O)c1cc(C2(NC(=O)c3cncc4c3cnn4-c3ccc(F)cc3)CC2)ccn1

% of control [17]: 12% | % of control [18]: 40% | % of control [19]: 48% | % of control [20]: 0%
Structure (SMILES): C[C@@]1(Cc2ccc(C#N)cc2)C(=O)N(c2cc(Cl)cc(Cl)c2)c2ncc(C(=O)NC3(c4nc(C5CCC5)no4)CC3)n21

% of inhibition [21]: 47.7% | % of control [22]: 0% | % of control [23]: 45%
Structure (SMILES): CS(=O)(=O)NCC[C@H](NC(=O)c1cncc2c1cnn2-c1ccc(F)cc1)c1ccnc(S(C)(=O)=O)c1

% of control [24]: 33% | % of inhibition [25]: 67% | % of control [26]: 33%
Structure (SMILES): CN(C)C(=O)Cn1cc(-c2nc([C@@](C)(c3ccc(-c4cnc(N)nc4)cc3)C3CC3)no2)cn1

% of control [27]: 75% | % of control [28]: 40% | % of control [29]: 75% | % of inhibition (D(1B) dopamine receptor [30]): 34%
Structure (SMILES): CCS(=O)(=O)c1cc2cc(C[C@](O)(CC(C)(C)c3ccc(F)cc3C(N)=O)C(F)(F)F)[nH]c2cn1
